From US20250296971A1, “GASTRIC INHIBITORY PEPTIDE RECEPTOR LIGANDS” (priority 2021, published 2025)
*1 amine or outer side, *2 acyl side, *3 side chain or, on linkers, in order; H or OH if unused. Where a SMILES comes first, the peptide text is derived from it. Bridges are numbered along the chain shown (N, C = ends). [ ]: non-standard residue; d: D form. The star is where a group is joined. X5 = NC(=O)[C@H](CCCCNC(=O)CN1CCN(CC(=O)O)CCN(CC(=O)O)CCN(CC(=O)O)CC1)NC(=O)CCC(=O)NCCCOCCOCCOCCCN*; DOTA(In) = O=C1CN2CCN3CCN(CC(=O)*)CCN(CC2)CC(=O)[O][In]([O]1)[O]C(=O)C3; DOTA(Lu) = O=C1CN2CCN3CCN(CC(=O)*)CCN(CC2)CC(=O)[O][Lu]([O]1)[O]C(=O)C3; NH(1-deoxy-D-glucityl) = OC[C@@H](O)[C@@H](O)[C@H](O)[C@@H](O)CN*; X21 = O=C(CCP(=O)(O)CN1CCN(CP(=O)(O)CO)CCN(CP(=O)(O)CO)CC1)*; Pro(trans-4-NH2) = O=C([C@@H]1C[C@@H](N[*:3])CN1[*:1])[*:2]; DOTA = O=C(O)CN1CCN(CC(=O)O)CCN(CC(=O)*)CCN(CC(=O)O)CC1; Trp(5-Cl) = N[C@@H](Cc1c[nH]c2ccc(Cl)cc12)C(=O)O; Pyridine(2,6-diCH2) = c1cc(C[*:1])nc(C[*:2])c1; Pro(4R-NH2) = N[C@H]1CN[C@H](C(=O)O)C1; 1Nal = N[C@@H](Cc1cccc2ccccc12)C(=O)O; mXylylene = c1cc(C[*:1])cc(C[*:2])c1; Glutaryl = O=C(CCCC(=O)[*:2])[*:1]; X6 = c1cc(CSCCN[*:2])nc(C[*:1])c1; Hyp = O=C(O)[C@@H]1C[C@@H](O)CN1; X1 = O=C(CN1CCC(N[*:1])CC1)[*:2]; Cha = N[C@@H](CC1CCCCC1)C(=O)O; αMeL = CC(C)C[C@](C)(N)C(=O)O; Suc = O=C(CCC(=O)[*:2])[*:1]; Api = NC1(C(=O)O)CCNCC1; Thp = NC1(C(=O)O)CCOCC1; Aib = CC(C)(N)C(=O)O; Sar = CNCC(=O)O

Target: T1, GIPR (CHO-K1-hGIPR cells) (Homo sapiens, UniProt P48546)
T1 construct: host or cells: CHO-K1
T1 sequence (P48546 22-466): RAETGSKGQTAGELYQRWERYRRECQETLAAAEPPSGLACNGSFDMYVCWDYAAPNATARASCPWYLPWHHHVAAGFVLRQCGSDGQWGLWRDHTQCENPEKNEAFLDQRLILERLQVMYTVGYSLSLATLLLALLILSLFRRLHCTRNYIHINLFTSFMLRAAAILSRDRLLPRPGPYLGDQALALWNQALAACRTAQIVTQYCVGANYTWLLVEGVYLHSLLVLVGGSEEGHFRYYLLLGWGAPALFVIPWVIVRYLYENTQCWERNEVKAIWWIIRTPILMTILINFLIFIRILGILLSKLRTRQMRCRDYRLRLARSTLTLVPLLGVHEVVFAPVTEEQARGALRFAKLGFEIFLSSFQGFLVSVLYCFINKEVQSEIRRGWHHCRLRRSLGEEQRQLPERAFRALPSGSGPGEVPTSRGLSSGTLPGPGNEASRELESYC
Assay: FACS binding assay
Details: competition with 20 nM GIP-057, 4° C. for 1 hour, read-out: pIC50 Category (converted)
Procedure: In order to determine binding of compounds according to the present invention to GIPR-expressing cells, a FACS binding assay was established.
CHO-K1-hGIPR cells (GenScript Biotech, #M00486) were cultured in Ham's F12 medium (Sigma-Aldrich, #N4888) including 10% fetal calf serum (FCS), 2 mM L-glutamine, 100 U/mL penicillin, 100 μg/mL streptomycin, 200 μg/mL Zeocin and 100 μg/mL HygromycinB. Cells were detached with Accutase (Biolegend, #BLD-423201) and washed in FACS buffer (PBS including 1% FCS). Cells were diluted in FACS buffer to a final concentration of 500.000 cells per mL. 200 μL of the cell suspension were transferred to a u-shaped non-binding 96-well plate (Greiner) and cells were washed in ice-cold FACS buffer.
Cells were washed twice in FACS buffer. An additional incubation step with 1 μg/mL APC-Streptavidin (Miltenyi; #130-106-791) in 50 μL FACS buffer for 30 min on ice was performed followed by two washes with FACS buffer.
Cells were analyzed in an Attune NxT flow cytometer. Median fluorescence intensities (MFI) of the APC/Cy5-channel were calculated by Attune NxT software. MFI values were plotted against peptide concentration and four parameter logistic (4PL) curve fitting and EC50/pEC50 or IC50/pIC50 calculations were performed using ActivityBase software.

Compound | IC50 [nM]
CC[C@H](C)[C@@H]1NC(=O)[C@H](CC(C)C)NC(=O)C(C)(C)NC(=O)[C@@H](NC(=O)[C@](C)(CC(C)C)NC(=O)[C@H](CCC(=O)O)NC(=O)[C@@H]2CCCN2C(=O)[C@H](Cc2c[nH]c3ccccc23)NC(=O)[C@H](Cc2c[nH]c3ccccc23)NC(=O)[C@H](CC(=O)O)NC(C)=O)CSCc2cccc(c2)CSC[C@@H](C(=O)NCCCOCCOCCOCCCNC(=O)CCC(=O)N[C@@H](CCCCNC(=O)CN2CCN(CC(=O)O)CCN(CC(=O)O)CCN(CC(=O)O)CC2)C(N)=O)NC1=O [GIP-296, Ac-Asp-Trp-Trp-Pro-Glu-Aml-[Cys(3MeBn)-Aib-Leu-Ile-Cys]-Ttds-Lys(DOTA)-NH2] (Ac-DWWPE[αMeL]C[Aib]LIC-X5; linker 7-11 via mXylylene) | > 1000
CC(=O)N[C@@H](CC(=O)O)C(=O)N[C@@H](Cc1c[nH]c2ccccc12)C(=O)N[C@@H](Cc1c[nH]c2ccc(Cl)cc12)C(=O)N1C[C@H](O)C[C@H]1C(=O)N[C@@H](CCC(=O)O)C(=O)N[C@H](CC(C)C)C(=O)N[C@H]1CSCc2cccc(n2)CSC[C@@H](C(N)=O)NC(=O)[C@H](Cc2c[nH]c3ccccc23)NC(=O)[C@H](CC(C)C)NC(=O)C2(CCOCC2)NC1=O [GIP-355, Ac-Asp-Trp-5Clw-Hyp-Glu-leu-[Cys(2Lut)-Thp-Leu-Trp-Cys]-NH2] (Ac-DW[Trp(5-Cl)][Hyp]E[dL]C[Thp]LWC-NH2; linker 7-11 via Pyridine(2,6-diCH2)) | > 1000
CC[C@H](C)[C@@H]1NC(=O)[C@H](CC(C)C)NC(=O)C2(CCOCC2)NC(=O)[C@@H](NC(=O)[C@H](CC(C)C)NC(=O)[C@H](CCC(=O)O)NC(=O)[C@@H]2CCCN2C(=O)[C@H](Cc2c[nH]c3ccccc23)NC(=O)[C@H](Cc2c[nH]c3ccccc23)NC(=O)CCC(=O)O)CSCc2cccc(c2)CSC[C@@H](C(N)=O)NC1=O [GIP-261, HO-Succinyl-Trp-Trp-Pro-Glu-Leu-[Cys(3MeBn)-Thp-Leu-Ile-Cys]-NH2] (Suc-WWPELC[Thp]LIC-NH2; linker 6-10 via mXylylene) | 10 to 79.4
CC(=O)N[C@@H](CC(=O)O)C(=O)N[C@@H](Cc1c[nH]c2ccccc12)C(=O)N[C@@H](Cc1c[nH]c2ccc(Cl)cc12)C(=O)N1C[C@H](NC(=O)CN2CCN(CC(=O)O)CCN(CC(=O)O)CCN(CC(=O)O)CC2)C[C@H]1C(=O)N[C@@H](CCC(=O)O)C(=O)N[C@H](CC(C)C)C(=O)N[C@H]1CSCc2cccc(n2)CSC[C@@H](C(N)=O)NC(=O)[C@H](Cc2ccccc2)NC(=O)[C@H](CC(C)C)NC(=O)C2(CCOCC2)NC1=O [GIP-391, Ac-Asp-Trp-5Clw-Tap (DOTA)-Glu-leu-[Cys(2Lut)-Thp-Leu-Phe-Cys]-NH2] (Ac-DW[Trp(5-Cl)][Pro(trans-4-NH2)](DOTA)E[dL]C[Thp]LFC-NH2; linker 7-11 via Pyridine(2,6-diCH2)) | 10 to 79.4
CC(=O)N[C@@H](CC(=O)O)C(=O)N[C@@H](Cc1c[nH]c2ccccc12)C(=O)N[C@@H](Cc1c[nH]c2ccccc12)C(=O)N1CCC[C@H]1C(=O)N[C@@H](CCC(=O)O)C(=O)N[C@@H](CC(C)C)C(=O)N[C@H]1CSCc2cccc(c2)CSC[C@@H](C(=O)NCCCOCCOCCOCCCNC(=O)CCC(=O)N[C@@H](CCCCNC(=O)CN2CCN(CC(=O)O)CCN(CC(=O)O)CCN(CC(=O)O)CC2)C(N)=O)NC(=O)[C@H](CC2CCCCC2)NC(=O)[C@H](CC(C)C)NC(=O)C(C)(C)NC1=O [GIP-278, Ac-Asp-Trp-Trp-Pro-Glu-Leu-[Cys(3MeBn)-Aib-Leu-Cha-Cys]-Ttds-Lys(DOTA)-NH2] (Ac-DWWPELC[Aib]L[Cha]C-X5; linker 7-11 via mXylylene) | 100 to 794

Same assay, conditions: competition with 20 nM GIP-057, 4° C., 1 hour, read-out: pIC50 Category (converted)

Compound | IC50 [nM]
CC[C@H](C)[C@@H]1NC(=O)[C@H](CC(C)C)NC(=O)C(C)(C)NC(=O)[C@@H](NC(=O)[C@@H](CC(C)C)NC(=O)[C@H](CCC(=O)O)NC(=O)[C@@H]2CCCN2C(=O)[C@H](Cc2cccc3ccccc23)NC(=O)[C@H](Cc2c[nH]c3ccccc23)NC(=O)[C@H](CC(=O)O)NC(C)=O)CSCc2cccc(c2)CSC[C@@H](C(=O)NCCCOCCOCCOCCCNC(=O)CCC(=O)N[C@@H](CCCCNC(=O)CN2CCN(CC(=O)O)CCN(CC(=O)O)CCN(CC(=O)O)CC2)C(N)=O)NC1=O [GIP-078, Ac-Asp-Trp-1Ni-Pro-Glu-leu-[Cys(3MeBn)-Aib-Leu-Ile-Cys]-Ttds-Lys(DOTA)-NH2] (Ac-DW[1Nal]PE[dL]C[Aib]LIC-X5; linker 7-11 via mXylylene) | < 10
CC[C@H](C)[C@@H]1NC(=O)[C@H](CC(C)C)NC(=O)C2(CCOCC2)NC(=O)[C@@H](NC(=O)[C@@H](CC(C)C)NC(=O)[C@H](CCC(=O)O)NC(=O)[C@@H]2C[C@@H](O)CN2C(=O)[C@H](Cc2c[nH]c3ccc(Cl)cc23)NC(=O)[C@H](Cc2c[nH]c3ccccc23)NC(=O)CCC(=O)O)CSCc2cccc(n2)CSC[C@@H](C(=O)NC2CCN(CC(=O)N[C@@H](CCCCNC(=O)CN3CCN4CCN5CCN(CC3)CC(=O)[O][In]([O]C(=O)C4)[O]C(=O)C5)C(N)=O)CC2)NC1=O [GIP-168, HO-Succinyl-Trp-5Clw-Hyp-Glu-leu-[Cys(2Lut)-Thp-Leu-Ile-Cys]-APAc-Lys(InDOTA)-NH2] (Suc-W[Trp(5-Cl)][Hyp]E[dL]C[Thp]LIC[X1]K(DOTA(In))-NH2; linker 6-10 via Pyridine(2,6-diCH2)) | < 10
CC[C@H](C)[C@@H]1NC(=O)[C@H](CC2CCCCC2)NC(=O)C(C)(C)NC(=O)[C@@H](NC(=O)[C@H](CC(C)C)NC(=O)[C@H](CCC(=O)O)NC(=O)[C@@H]2CCCN2C(=O)[C@H](Cc2c[nH]c3ccccc23)NC(=O)[C@H](Cc2c[nH]c3ccccc23)NC(=O)[C@H](CC(=O)O)NC(C)=O)CSCc2cccc(c2)CSC[C@@H](C(=O)NCCCOCCOCCOCCCNC(=O)CCC(=O)N[C@@H](CCCCNC(=O)CN2CCN(CC(=O)O)CCN(CC(=O)O)CCN(CC(=O)O)CC2)C(N)=O)NC1=O [GIP-134, Ac-Asp-Trp-Trp-Pro-Glu-Leu-[Cys(3MeBn)-Aib-Cha-Ile-Cys]-Ttds-Lys(DOTA)-NH2] (Ac-DWWPELC[Aib][Cha]IC-X5; linker 7-11 via mXylylene) | 10 to 79.4
CC[C@H](C)[C@@H]1NC(=O)[C@H](CC(C)C)NC(=O)C2(CCOCC2)NC(=O)[C@@H](NC(=O)[C@@H](CC(C)C)NC(=O)[C@H](CCC(=O)O)NC(=O)CN(C)C(=O)[C@H](Cc2c[nH]c3ccc(Cl)cc23)NC(=O)[C@H](Cc2c[nH]c3ccccc23)NC(=O)[C@H](CC(=O)O)NC(C)=O)CSCc2cccc(n2)CSC[C@@H](C(N)=O)NC1=O [GIP-183, Ac-Asp-Trp-5Clw-Nmg-Glu-leu-[Cys(2Lut)-Thp-Leu-Ile-Cys]-NH2] (Ac-DW[Trp(5-Cl)][Sar]E[dL]C[Thp]LIC-NH2; linker 7-11 via Pyridine(2,6-diCH2)) | < 10

Same assay, conditions: pIC50 Category, competition with 20 nM GIP-057, 4° C., 1 hour

Compound | IC50 [nM]
CC[C@H](C)[C@@H]1NC(=O)[C@H](CC(C)C)NC(=O)C2(CCN(C(=O)CCP(=O)(O)CN3CCN(CP(=O)(O)CO)CCN(CP(=O)(O)CO)CC3)CC2)NC(=O)[C@@H](NC(=O)[C@@H](CC(C)C)NC(=O)[C@H](CCC(=O)O)NC(=O)[C@@H]2C[C@@H](N)CN2C(=O)[C@H](Cc2c[nH]c3ccc(Cl)cc23)NC(=O)[C@H](Cc2c[nH]c3ccccc23)NC(=O)[C@H](CC(=O)O)NC(=O)CCCC(=O)NC[C@H](O)[C@@H](O)[C@H](O)[C@H](O)CO)CSCc2cccc(n2)CSC[C@@H](C(=O)NC2CCN(CC(=O)N[C@H](CCC(=O)NC[C@H](O)[C@@H](O)[C@H](O)[C@H](O)CO)C(N)=O)CC2)NC1=O [GIP-029, AGLU-Glutar-Asp-Trp-5Clw-Tap-Glu-leu-[Cys(2Lut)-Apc(NOPO)-Leu-Ile-Cys]-APAc-glu(AGLU)-NH2] ({NH(1-deoxy-D-glucityl)-Glutaryl}-DW[Trp(5-Cl)][Pro(4R-NH2)]E[dL]C[Api](X21)LIC[X1][dE](NH(1-deoxy-D-glucityl))-NH2; linker 7-11 via Pyridine(2,6-diCH2)) | < 10
CC[C@H](C)[C@@H]1NC(=O)[C@H](CC(C)C)NC(=O)C2(CCOCC2)NC(=O)[C@@H](NC(=O)[C@@H](CC(C)C)NC(=O)[C@H](CCC(=O)O)NC(=O)[C@@H]2C[C@@H](O)CN2C(=O)[C@H](Cc2c[nH]c3ccc(Cl)cc23)NC(=O)[C@H](Cc2c[nH]c3ccccc23)NC(=O)[C@H](CC(=O)O)NC(=O)CN2CCC(NC(=O)CN3CCN4CCN5CCN(CC3)CC(=O)[O][Lu]([O]C(=O)C4)[O]C(=O)C5)CC2)CSCc2cccc(n2)CSCCNC1=O [GIP-162, LuDOTA-APAc-Asp-Trp-5Clw-Hyp-Glu-leu-[Cys(2Lut)-Thp-Leu-Ile-AET]] ({DOTA(Lu)}-[X1]DW[Trp(5-Cl)][Hyp]E[dL]C[Thp]LI; linker 8-C via X6) | < 10
